Reference: patent US20110034557A1, “ANTIMICROBIAL COMPOSITIONS AND USES THEREOF” (MODULAR GENETICS, INC., priority 2009, published 2011)
Residues, ends and D or L forms follow the SMILES beside them.

Test system: S. aureus (ATCC 6538)
Assay: Disk assay of growth inhibition of S. aureus on agar plates
Format: cell-based, Staphylococcus aureus
Experimental: The ability of FA-Glu to inhibit the growth or kill S. aureus (ATCC 6538) was examined.
S. aureus was grown in liquid culture in either Tryptic Soy Broth (TSB; Sigma), which contains casein peptone 17 g/l, soya peptone 3 g/l, sodium chloride 5 g/l, dipotassium hydrogen phosphate 2.5 g/l, and glucose 2.5 g/l or M9YE (disodium hydrogen phosphate 6 g/l, monopotassium phosphate 3 g/l, sodium chloride 0.5 g/l, ammonium chloride 1 g/l, yeast extract 3 g/l, glucose 5 g/l, and casamino acids 10 g/l) at 30° C. Disk assays were carried out on M9YE plates (M9YE liquid media plus 15 g/l agar) and YPD plates (peptone 20 g/l, yeast extract 10 g/l, glucose 20 g/l, agar 15 g/l). S. aureus was plated out evenly using a sterile cotton swab. Blank Paper disks 6 mm were placed into a sterile container and then different dilutions of FA-Glu (25 ug, 100 ug, 300 ug) that had been re-suspended in a diluted aqueous solution containing ammonium hydroxide (pH 10.2) were added to the disks. The disks were allowed to absorb and dry. Using sterile tweezers, the disks were placed onto the plates that had been swabbed with Staphylococcus aureus. They were then incubated at 28° C. over approximately 65 hours.
Disk assays were repeated as above using a commercially available acyl amino acid, cocoyl glutamate (Ajinomoto, Japan).

Compound	halo formation around disk (control experiment) (300 ug absorbed onto a disk)	regrowth in halos (disk assay plates)	halo formation around disk (disk assays repeated as above)	halo size relative to FA-Glu (same concentration and same conditions as FA-Glu)
CC(C)CCCCCCCCC[C@@H]1CC(=O)N[C@@H](CCC(=O)O)C(=O)N[C@@H](CC(C)C)C(=O)N[C@H](CC(C)C)C(=O)N[C@@H](C(C)C)C(=O)N[C@@H](CC(=O)O)C(=O)N[C@H](CC(C)C)C(=O)N[C@@H](CC(C)C)C(=O)O1 [surfactin, reference compound] (HELM PEPTIDE1{E.L.[dL].V.D.[dL].L}|CHEM1{[CC(C)CCCCCCCCC[C@H](CC(=O)[*:1])O[*:2]]}$PEPTIDE1,CHEM1,1:R1-1:R1|PEPTIDE1,CHEM1,7:R2-1:R2$$$V2.0)	produced a halo, but there was cell growth within the halo			
cocoyl glutamate [reference compound]		regrowth occurred	produced a halo	larger than halos observed using FA-Glu
